Results from publication PMC7029871, “Development and validation of a sensitive LC-MS/MS method for the quantitation of IMB-YH-4py5-2H, an antituberculosis candidate, and its application to the pharmacokinetic study” (PLoS ONE, 2020).

Test system: Rat AMs NR8383 cells
Assay: In vitro uptake study in alveolar macrophages
Type: cell-based
Settings: 24 h-exposure in 2 μg/mL
Protocol: Rat AMs NR8383 cells (American Type Culture Collection, Manassas, VA, USA) were grown overnight at 37°C with 5% CO2 in Ham’s F12K medium (Gibco, Grand island, NY, USA) containing 20% fetal bovine serum (FBS, Gibco, Thornton, Australia) in 24-well culture plates (4 × 10^5 cells/well in 1 mL culture medium). After 24 h-exposure to IMB-YH-4py5-2H (2 μg/mL), the culture medium and the subsequent three washes were pooled and processed further for the determination of the extracellular drug concentrations. The cells were then extracted with 0.1 M NaOH to collect the intracellular drug for the LC-MS/MS analysis. All experiments were done in triplicate. The intracellular/extracellular drug concentration ratios were then calculated.

`CN(C)C(=O)/C=C/C(=O)c1ccc(-c2ccncc2)cc1.Cl` [IMB-YH-4py5-2H, (E)-N,N-dimethyl-4-oxo-4-(4-(pyridin-4-yl)phenyl)but-2-enamide hydrochloride] was tested, and the “intracellular to extracellular concentration ratio (I/E ratio)” value was 133.4±12.5.
